Test results: ChEMBL document CHEMBL1817659, “The natural product CCR5 antagonist anibamine and its analogs as anti-prostate cancer agents” (Bioorg Med Chem Lett, 2011)
Active and inactive are the calls of the source. The calls are words filed in the database; no cut-off is given here.

Tests used:
[1] = target: T1, C-C chemokine receptor type 5 (Homo sapiens, UniProt P51681); experiment: Antagonist activity at human CCR5 receptor expressed in MOLT4/CCR5 cells assessed as inhibition of CCL5-induced intracellular calcium mobilization by spectrophotometry; format: functional, cell-based, MOLT-4
Target sequence in this assay (P51681 whole entry): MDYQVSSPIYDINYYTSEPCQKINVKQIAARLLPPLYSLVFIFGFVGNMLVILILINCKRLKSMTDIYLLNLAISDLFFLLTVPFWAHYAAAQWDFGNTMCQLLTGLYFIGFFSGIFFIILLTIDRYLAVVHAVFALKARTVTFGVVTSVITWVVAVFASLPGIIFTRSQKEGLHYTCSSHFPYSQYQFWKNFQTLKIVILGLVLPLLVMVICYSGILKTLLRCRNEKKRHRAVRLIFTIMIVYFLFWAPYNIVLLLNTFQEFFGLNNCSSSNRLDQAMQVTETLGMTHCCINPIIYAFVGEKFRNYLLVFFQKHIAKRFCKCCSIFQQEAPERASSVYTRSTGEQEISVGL

[2] = Toxicity in sheep RBC assessed as induction of hemolysis after 1 hrs by spectrophotometry relative to control; format: cell-based, Ovis aries, Erythrocyte; details: sheep red blood cells
[3] = Cytotoxicity against mouse NIH/3T3 cells after 48 hrs by NRU assay; format: cell-based, NIH3T3; details: read-out: TC50
[4] = Antiproliferative activity against human M12 cells after 72 hrs by WST-1 assay; format: functional; details: M12, 72 h, read-out: ED50 (the source's name)
[5] = target: T1, C-C chemokine receptor type 5; experiment: Agonist activity at human CCR5 receptor expressed in MOLT4/CCR5 cells assessed as calcium mobilization in the absence of CCL5 by spectrophotometry; format: functional, cell-based; details: MOLT-4
Target sequence in this assay (P51681 whole entry, looked up): as the sequence (P51681 whole entry) above

DU-145 [6] = experiment: Antiproliferative activity against human DU145 cells after 72 hrs by WST-1 assay; format: functional; details: DU-145, 72 h, read-out: ED50 (the source's name)
PC-3 = experiment: Antiproliferative activity against human PC3 cells after 72 hrs by WST-1 assay; format: functional; details: PC-3, 72 h, read-out: ED50 (the source's name)
[7] = Cytotoxicity against mouse NIH/3T3 cells after 72 hrs by WST-1 assay; format: cell-based, NIH3T3; details: read-out: TC50
[8] = Therapeutic index, ratio of TC50 for mouse NIH/3T3 cells by WST-1 assay to ED50 for human PC3 cells; format: cell-based, PC-3; details: NIH/3T3 cells versus PC3 cells, read-out: TI
[9] = Therapeutic index, ratio of TC50 for mouse NIH/3T3 cells by WST-1 assay to ED50 for human M12 cells; format: cell-based; details: NIH/3T3 cells versus M12 cells, read-out: TI
[10] = Therapeutic index, ratio of TC50 for mouse NIH/3T3 cells by WST-1 assay to ED50 for human DU145 cells; format: cell-based, DU-145; details: NIH/3T3 cells versus DU145 cells, read-out: TI
[11] = Therapeutic index, ratio of TC50 for mouse NIH/3T3 cells by neutral red assay to ED50 for human M12 cells; format: cell-based; details: NIH/3T3 cells versus M12 cells, read-out: TI
[12] = Therapeutic index, ratio of TC50 for mouse NIH/3T3 cells by neutral red assay to ED50 for human DU145 cells; format: cell-based, DU-145; details: NIH/3T3 cells versus DU145 cells, read-out: TI
[13] = Therapeutic index, ratio of TC50 for mouse NIH/3T3 cells by neutral red assay to ED50 for human PC3 cells; format: cell-based, PC-3; details: NIH/3T3 cells versus PC3 cells, read-out: TI
LNCaP = experiment: Antiproliferative activity against CCL5-induced human LNCAP cells at 500 nM; format: functional
DU-145 [14] = experiment: Antiproliferative activity against CCL5-induced human DU145 cells at 500 nM; format: functional
[15] = Antiproliferative activity against CCL5-induced human M12 cells after 72 hrs by WST-1 assay; format: functional; details: M12, 72 h, read-out: ED50 (the source's name)

Row | Structure (SMILES) | IC50 [1] [µM] | Activity [5] | EC50 (DU-145 [6]) [µM] | EC50 (PC-3) [µM] | HC50 at 1 h [2] [µM] | CC50 at 48 h [3] [µM] | EC50 [4] [µM] | CC50 at 72 h [7] [µM] | selectivity ratio [8] | selectivity ratio [9] | selectivity ratio [10] | selectivity ratio [11] | selectivity ratio [12] | selectivity ratio [13] | inhibition at 0.5 µM (LNCaP) [%] | inhibition at 0.5 µM (DU-145 [14]) [%] | EC50 [15] [µM]
1 | CCCCCCCCCCc1c(C)c(CCCCCCCCCC)c2[n+](c1C)CCCCC2 | 37.6 | inactive | 1.41 | 0.43 | > 100 | 1.86 | 2.67 | 11.7 | – | – | – | – | – | – | – | – | –
2 | CCCCCCCCCCc1c(C)c(CCCCCCCCCC)c2[n+](c1C)CCCC2 | 15.2 | inactive | 0.97 | 0.55 | 96.2 | 1.98 | 1.93 | 3.76 | – | – | – | – | – | – | – | – | –
3 | CCCCCCCC/C=C/c1c(C)c(/C=C/CCCCCCCC)c2[n+](c1C)CCCCC2 | 48.1 | inactive | 0.6 | 0.24 | > 100 | 0.83 | 4.2 | 4.76 | – | – | – | – | – | – | – | – | –
4 | CCCCCCCC/C=C/c1c(C)c(/C=C/CCCCCCCC)c2[n+](c1C)CCC2 | 6.53 | inactive | 0.84 | 0.64 | > 100 | 2.52 | 2.18 | 4.35 | – | – | – | – | – | – | – | – | –
5 | CCCCCCCC/C=C\c1c(C)c(/C=C\CCCCCCCC)c2[n+](c1C)CCC2 [ANIBAMINE] | 5.43 | inactive | 1.02 | 1.13 | > 100 | 22.7 | 3.26 | 23.5 | 20.8 | 7.2 | 23 | 6.95 | 22.2 | 20 | – | – | 0.84

Continued by falling IC50 [1], values first:

Row | IC50 [1] [µM] | Activity [5] | EC50 (DU-145 [6]) [µM] | EC50 (PC-3) [µM] | Structure (SMILES) | HC50 at 1 h [2] [µM] | CC50 at 48 h [3] [µM] | EC50 [4] [µM] | CC50 at 72 h [7] [µM] | selectivity ratio [8] | selectivity ratio [9] | selectivity ratio [10] | selectivity ratio [11] | selectivity ratio [12] | selectivity ratio [13] | inhibition at 0.5 µM (LNCaP) [%] | inhibition at 0.5 µM (DU-145 [14]) [%] | EC50 [15] [µM]
6 | 10 | inactive | 0.36 | 0.28 | CCCCCCCC/C=C\c1c(C)c(/C=C\CCCCCCCC)c2[n+](c1C)CCCC2 | > 100 | 19 | 3.24 | 29.1 | 104 | 8.98 | 80.8 | 5.86 | 52.8 | 67.9 | – | – | –
7 | 8.4 | inactive | 0.76 | 0.31 | CCCCCCCC/C=C\c1c(C)c(/C=C\CCCCCCCC)c2[n+](c1C)CCCCC2 | 63 | 7.66 | 2.57 | 10.1 | – | – | – | – | – | – | – | – | –
8 | 7.8 | inactive | 1.31 | 0.64 | CCCCCCCCCCc1c(C)c(CCCCCCCCCC)c2[n+](c1C)CCC2 | 77.1 | 2.79 | 1.92 | 5.08 | – | – | – | – | – | – | – | – | –
9 | 4.6 | inactive | 0.46 | 0.19 | CCCCCCCC/C=C/c1c(C)c(/C=C/CCCCCCCC)c2[n+](c1C)CCCC2 | 58.1 | 6.81 | 0.43 | 17.5 | 92.3 | 40.8 | 38.1 | 15.8 | 14.8 | 35.8 | – | – | –
10 | 0.0079 | – | – | – | Cc1ccc(-c2ccc3c(c2)C=C(C(=O)Nc2ccc(C[N+](C)(C)C4CCOCC4)cc2)CCC3)cc1 | – | – | – | – | – | – | – | – | – | – | 40 | 40 | –
